Here are results for 60 compounds from the METLIN SMRT retention time set (Domingo-Almenara et al. 2019).

This data set is described as follows: gradient 5% acetonitrile 3 min, to 50% in 2 min, to 85% in 15 min, held 3 min, 100 µL/min. Particulars: column: Zorbax Extend-C18 2.1 x 50 mm; eluents: water / acetonitrile, 0.1% formic acid. The gist of the method:
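Data were gathered over 3 months by HPLC coupled to a quadrupole time-of-flight mass spectrometer, operated in positive and negative ionization mode. Mixtures of ~100 pure standards ran on a Zorbax Extend-C18 column (2.1 × 50 mm, 1.8 μm) at 100 μL/min, with water and acetonitrile each containing 0.1% formic acid and dead and dwell volumes of 40 μL and 900 μL. Retention time was read from adduct peaks picked by computer and checked manually.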
`Cc1cc(OCC(=O)NCc2ccccc2Br)nc(N2CCN(c3ccccc3)CC2)n1` returned an RP-LC retention time of 871 s.
Take `O=C(c1cnccn1)N1C[C@@H](COCC2CC2)[C@H](c2ccncc2)C1`: the RP-LC retention time was 563 s.
Compound `Cc1cccc(S(=O)(=O)N2CCC(c3noc(-c4ccc(F)cc4)n3)CC2)c1` came in with an RP-LC retention time of 1180 s.
The compound `Cc1ccnc(OCC(=O)NC(C)C)n1` registered an RP-LC retention time of 586 s.
The compound `O=C(NC1CCCCC1)c1nc(-c2ccnc(N3CCCCC3)c2)no1` came in with an RP-LC retention time of 804 s.
As to `CCc1ccc(CNC(=O)c2cc3n(n2)CC(C)(C(=O)NCCC(C)C)N(C)C3=O)cc1` (stereo not given), the RP-LC retention time amounted to 860 s.
As to `COc1cccc(NC(=O)N2CCCC2c2nc(-c3cccc(OC)c3)no2)c1` (stereo not given), the RP-LC retention time is 947 s.
As for `Cc1nc(-c2ccccc2)nn1C1CCN(S(=O)(=O)c2cn(C)cn2)C1` (stereo not given), the RP-LC retention time came out at 632 s.
For the compound `CSc1ccc(CNC(=O)CN2CCc3[nH]c4c(C)cc(F)cc4c(=O)c3C2)cc1`, the RP-LC retention time worked out at 638 s.
Compound `CCN(CC)C(=O)N1CCO[C@@H](COc2ccccn2)[C@@H]1c1ccccc1` displayed an RP-LC retention time of 898 s.
To `CCN(CC)S(=O)(=O)c1ccc2c(c1)N(CC(=O)NCCCOC)C(=O)C1CCCCN21` (stereo not given) belongs 802 s; to `O=C(c1ccc(-c2cccs2)nc1)N1CCCCC1`, 813 s; to `COCCC1CCN(C(=O)CN(C)C(=O)Cc2c(C)noc2C)CC1`, 627 s.
`CC1(C(=O)NC2CCCC2)Cn2c(ccc2-c2ccco2)C(=O)N1Cc1cccnc1` (stereo not given) yielded an RP-LC retention time of 657 s.
`O=C(c1cn2ccnc(-c3ccccc3)c2n1)N1CCN(c2ncccn2)CC1` had an RP-LC retention time of 702 s.
The compound `COc1ccc2c(c1)c(N1CCCC1=O)c(C(=O)NCCCN1CC(C)CC(C)C1)n2C` (stereo not given) displayed an RP-LC retention time of 647 s.
To `CS(=O)(=O)N1CCC(C(=O)NCc2ccco2)Oc2ccc(Cl)cc21` (stereo not given) belongs 839 s; to `Cc1cc(-c2cc(S(=O)(=O)NCC(C)c3ccccc3)c(C)s2)n[nH]1` (stereo not given), 890 s.
As for `Cc1noc(-c2cc(=O)n(CC(=O)Nc3cccc(C(C)C)c3)c3ccccc23)n1`, the RP-LC retention time was found to be 996 s.
The compound `CCOc1cc2ncc(C#N)c(Nc3ccc(F)c(Cl)c3)c2cc1NC(=O)/C=C/CN(C)C` returned an RP-LC retention time of 727 s.
Regarding `CCc1nc2cc(N3CCC(C(=O)Nc4ccccc4OC)CC3)cnc2nc1CC`, the RP-LC retention time amounted to 942 s.
As to `CCOC(=O)c1noc2ncnc(N3CCc4ccccc43)c12`, the RP-LC retention time was found to be 948 s.
`CC(C)c1nnc(-c2coc(S(=O)(=O)N3CCN(C4CCCCC4)CC3)c2)o1` displayed an RP-LC retention time of 644 s.
Compound `O=C(O)c1cc(-c2cccs2)n(C2CCS(=O)(=O)C2)n1` (stereo not given) showed an RP-LC retention time of 630 s.
To `CC(C)OC(=O)CCC/C=C\C[C@@H]1[C@@H](CC[C@@H](O)CCc2ccccc2)[C@H](O)C[C@@H]1O` belongs 1020 s.
Under `COc1cc(NC(=O)N2CC(c3nc(C(C)C)nn3C)C2)cc(OC)c1` stands 662 s.
The compound `O=S(=O)(c1ccc2c(c1)CCCC2)N1CCCC1c1nc(-c2ccc(F)cc2)no1` (stereo not given) registered an RP-LC retention time of 1290 s.
The compound `COc1ccc(C2(C(=O)N3CCC4(CC3)NCCc3c4[nH]c4ccccc34)CC2)cc1` gave an RP-LC retention time of 681 s.
As to `Cc1noc(-c2cccn2Cc2cc(F)cc(F)c2)n1`, the RP-LC retention time worked out at 1040 s.
As for `COC(=O)c1c(-c2ccc(Cl)cc2)noc1NCCCN1CCOCC1`, the RP-LC retention time was determined as 667 s.
`COc1ccc2c(c1)C1(CCN(C(=O)c3ccc(F)c(F)c3)C1)C(=O)N2C` (stereo not given) registered an RP-LC retention time of 634 s.
For `CCc1noc(-c2nc(-c3ccc(F)c(F)c3)no2)n1`, the RP-LC retention time is 1090 s.
To `COc1ccc(-c2c(C)noc2NC(C)=O)cc1S(=O)(=O)N1CCN(C(=O)c2ccco2)CC1` belongs 670 s; to `CCN1CCN(C(=O)C2CCCN(c3nc4ccccc4n(Cc4ccccc4)c3=O)C2)CC1` (stereo not given), 706 s.
Compound `COCCCNCc1ccc(-c2ccccc2Cl)o1` gave an RP-LC retention time of 672 s.
`CN(C)C(=O)c1ccc2c(c1)n(Cc1ccccc1)c(=O)c1ccnn12` displayed an RP-LC retention time of 768 s.
For `CN(C)c1ncccc1NC(=O)c1cccc(C#N)c1`, the RP-LC retention time was determined as 585 s.
As for `COc1ccc(C(=O)NCc2c(C)noc2C)cc1F`, the RP-LC retention time worked out at 693 s.
For the compound `O=C(Nc1ccc(-c2ccn[nH]2)cc1)c1cccnc1`, the RP-LC retention time stood at 678 s.
Under `CCCCC(=O)Nc1ccc2nc(N3CCN(CC)CC3)cc(C)c2c1` stands 579 s; under `COc1ccc(NC(=O)c2cc3c(s2)CN(C2CCCC2)C3)c(OC)c1`, 616 s; under `Cc1c(Cl)cccc1NC(=O)N1CCc2nc(-c3ccc(F)cc3)ncc2C1`, 996 s.
In turn, `Cc1cccc(NC(=O)Nc2nccn(-c3cccc(Cl)c3C)c2=O)c1` had an RP-LC retention time of 1110 s.
To `Cc1c(C)n(C)c2ccc(C(N)=O)cc12` belongs 704 s.
With `Cc1nc(N2CCCC2)cc(N2CCN(C(=O)c3ccccc3Br)CC2)n1`, the RP-LC retention time came out at 651 s.
`Cc1cc(C2CCCN2C(=O)Nc2ccccc2Cl)on1` (stereo not given) had an RP-LC retention time of 830 s.
Regarding `O=C(Nc1cccc2cccnc12)C1COCC(=O)N1Cc1ccccc1` (stereo not given), the RP-LC retention time worked out at 777 s.
`Cc1cc(N2CCN(C)CC2)nc(N2CCN(S(=O)(=O)c3cc(C)c(C)cc3C)CC2)n1` registered an RP-LC retention time of 598 s.
Take `CC1CCN(c2cc(C(=O)O)c3cc(NC(=O)c4ccc(Br)cc4)ccc3n2)CC1`: the RP-LC retention time was 689 s.
To `CC(C)OCCCNC(=O)Cn1c2ccccc2c2cnn(C)c(=O)c21` belongs 745 s; to `Cc1ccc(C)c(NC(=O)CN2CCC(c3nc(-c4cccs4)no3)CC2)c1`, 724 s; to `NC(=O)c1nsc2c(=O)n(CC(=O)NC3CCCC3)cnc12`, 596 s.
`COCCc1noc(-c2cnc3nc(C)ccc3c2Nc2cccc(C)c2)n1` registered an RP-LC retention time of 728 s.
Turning to `Cc1n[nH]c(C)c1CCC(=O)NCc1c(F)cccc1F`, the RP-LC retention time is 526 s.
Compound `Cc1ccc(-c2ccc(=O)n(Cc3nc(-c4ccc5c(c4)OCO5)no3)n2)cc1` gave an RP-LC retention time of 1020 s.
On to `CC1(C)CC(NC(=O)COc2ccc(Cl)cc2Br)CC(C)(C)N1`, for which the RP-LC retention time worked out at 661 s.
`O=C(Nc1ccc(C(F)(F)F)cc1)c1cnc(-c2ccc(F)cc2)nc1-c1ccncc1`: the RP-LC retention time was found to be 1070 s.
In turn, `Cc1ccc(NC(=O)C2CCN(C(=O)c3ncn4c3COC(c3ccc(F)cc3)C4)CC2)cc1F` (stereo not given) came in with an RP-LC retention time of 854 s.
`CC(C)CC(=O)Nc1ccc(S(=O)(=O)N2CCCC2c2nc(-c3ccccc3)no2)cc1` (stereo not given): the RP-LC retention time was 1080 s.
Under `CC(C)Cn1c(=O)c2ccccc2n(Cc2nc(-c3ccc(Cl)cc3)no2)c1=O` stands 1240 s.
